The record followed here is patent US7829572B2 (Pfizer Inc, priority 2006, dated 2010).

In the experiment the target is T1, calcium receptor (CasR) (Homo sapiens, UniProt P41180).
T1 construct: expressed in transfected cells; host or cells: HEK 293
T1 sequence (P41180 20-1078): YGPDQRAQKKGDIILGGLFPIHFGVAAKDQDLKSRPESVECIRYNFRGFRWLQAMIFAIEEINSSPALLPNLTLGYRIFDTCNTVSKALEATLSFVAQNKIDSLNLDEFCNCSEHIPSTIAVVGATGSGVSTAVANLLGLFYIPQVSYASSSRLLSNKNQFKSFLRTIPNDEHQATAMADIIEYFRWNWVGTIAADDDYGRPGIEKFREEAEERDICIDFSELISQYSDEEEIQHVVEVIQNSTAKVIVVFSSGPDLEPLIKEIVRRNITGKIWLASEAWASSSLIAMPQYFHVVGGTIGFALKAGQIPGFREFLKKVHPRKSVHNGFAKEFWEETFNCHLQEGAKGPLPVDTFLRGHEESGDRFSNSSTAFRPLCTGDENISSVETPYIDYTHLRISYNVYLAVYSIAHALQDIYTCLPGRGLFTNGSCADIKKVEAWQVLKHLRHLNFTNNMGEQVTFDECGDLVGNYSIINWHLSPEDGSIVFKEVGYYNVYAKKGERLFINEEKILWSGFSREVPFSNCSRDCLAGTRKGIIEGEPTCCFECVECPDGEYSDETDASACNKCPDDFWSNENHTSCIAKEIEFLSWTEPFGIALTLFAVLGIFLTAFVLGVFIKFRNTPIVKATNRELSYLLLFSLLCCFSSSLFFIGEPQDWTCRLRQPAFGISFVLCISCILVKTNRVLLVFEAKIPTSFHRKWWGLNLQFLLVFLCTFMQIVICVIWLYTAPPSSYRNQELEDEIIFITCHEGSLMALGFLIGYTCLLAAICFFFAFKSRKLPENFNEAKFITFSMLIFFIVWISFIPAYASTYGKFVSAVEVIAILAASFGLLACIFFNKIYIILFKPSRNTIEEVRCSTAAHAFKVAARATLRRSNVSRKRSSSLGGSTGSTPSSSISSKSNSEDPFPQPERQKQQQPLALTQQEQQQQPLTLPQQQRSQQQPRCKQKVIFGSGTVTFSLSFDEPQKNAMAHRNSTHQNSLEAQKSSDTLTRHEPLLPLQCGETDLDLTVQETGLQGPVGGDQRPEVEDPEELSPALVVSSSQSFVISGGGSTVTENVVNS
As to the kind of experiment: FLIPR Assay for Evaluating the Potency and Selectivity of Test Compounds. It counts as cell-based. The settings on record: HEK 293 cells expressing CasR; 30 minutes pre-incubation; stimulation by 1.7 mM Ca2+; read 42 seconds after stimulation. From the text:
FLIPR Assay for Evaluating the Potency and Selectivity of Test Compounds
Human kidney cell (HEK 293) expressing the calcium receptor (CasR) are used to detect antagonists of the receptor using Fluorometric imaging plate reader (FLIPR, Molecular Devices, Sunnyvale Calif.). Receptor activation by extracellular calcium results in the release of calcium from intracellular stores into the cytosol. A fluorescent indicator (Fluo-4) is internalized by the cells from growth media and interacts with calcium released into the cytosol to provide a means of quantifying intracellular Ca^2+ levels and receptor agonism/antagonism. Fluorescence intensity is detected by the FLIPR CCD camera and traced as a function of time. Potential antagonists are identified by their ability to decrease this fluorescent response.
Prior to the addition of test compound cells are washed with a 10 mM HEPES buffer solution. The test compound, for example the compound of Example 1, is added at various doses (from 1 µM to 3 nM) and pre-incubated with cells for 30 minutes followed by stimulation of the CasR by the addition of 1.7 mM Ca^2+. IC50 values are based on the ability of the cells to inhibit the Ca^2+ induced increase in intracellular Ca^2+. Fluorescence signal is read 42 seconds after the stimulation of the CasR by the addition of 1.7 mM Ca^2+.
The following table provides FLIPR IC50 data for the specified Examples. The IC50s are reported as micromolar concentration with n being the number of times the particular compound was assayed.

Take `O=c1c2c(-c3ccccc3)nccc2nc(-c2ccccc2O)n1CCc1ccccc1` [Example 24, 2-(2-Hydroxy-phenyl)-3-phenethyl-5-phenyl-3H-pyrido[4,3-d]pyrimidin-4-one]: the IC50 stood at 2600 nM.
Under `O=c1c2c(Cc3ccccc3)nccc2nc(-c2ccccc2O)n1CCc1ccccc1` [Example 25, 5-Benzyl-2-(2-hydroxy-phenyl)-3-phenethyl-3H-pyrido[4,3-d]pyrimidin-4-one] stands 3010 nM; under `Cc1nccc2nc(-c3ccccc3O)n(CCc3ccccc3)c(=O)c12` [Example 26, 2-(2-Hydroxy-phenyl)-5-methyl-3-phenethyl-3H-pyrido[4,3-d]pyrimidi-4-one], 2990 nM.
Regarding `CN(C)c1ccc(-c2nccc3nc(-c4ccccc4O)n(CCc4ccccc4)c(=O)c23)cn1` [Example 27, 5-(6-Dimethylamino-pyridin-3-yl)-2-(2-hydroxy-phenyl)-3-phenethyl-3H-pyrido[4,3-d]pyrimidin-4-one], the IC50 stood at 2260 nM.
Take `Cc1cc(-c2nccc3nc(-c4ccccc4O)n(CCc4ccccc4)c(=O)c23)cnc1N(C)C` [Example 28, 5-(6-Dimethylamino-5-methyl-pyridin-3-yl)-2-(2-hydroxy-phenyl)-3-phenethyl-3H-pyrido[4,3-d]pyrimidin-4-one]: the IC50 was found to be 4830 nM.
For `O=c1c2c(-c3ccc(N4CCCC4)nc3)nccc2nc(-c2ccccc2O)n1CCc1ccccc1` [Example 29, 5-(6-pyrrolidine-5-pyridin-3-yl)-2-(2-hydroxy-phenyl)-3-phenethyl-3H-pyrido[4,3-d]pyrimidin-4-one], the IC50 was 490 nM.
For `COc1nccc2nc(-c3ccccc3O)n(CCc3ccccc3)c(=O)c12` [Example 30, 2-(2-Hydroxy-phenyl)-5-methoxy-3-phenethyl-3H-pyrido[4,3-d]pyrimidin-4-one], the IC50 was 1170 nM.
For the molecule `CC1(COc2nccc3nc(-c4ccccc4O)n(CCc4ccccc4)c(=O)c23)CC1` [Example 31, 2-(2-Hydroxy-phenyl)-5-(1-methyl-cyclopropylmethoxy)-3-phenethyl-3H-pyrido[4,3-d]pyrimidin-4-one], the IC50 was 1930 nM.
On to `CCCOc1nccc2nc(-c3ccccc3O)n(CCc3ccccc3)c(=O)c12` [Example 32, 2-(2-Hydroxy-phenyl)-3-phenethyl-5-propoxy-3H-pyrido[4,3-d]pyrimidin-4-one], for which the IC50 worked out at 570 nM.
In the case of `O=c1c2c(OC3CCC3)nccc2nc(-c2ccccc2O)n1CCc1ccccc1` [Example 33, 5-Cyclobutyloxy-2-(2-hydroxy-phenyl)-3-phenethyl-3H-pyrido[4,3-d]pyrimidin-4-one] it was 520 nM.
For the molecule `CC(C)COc1nccc2nc(-c3ccccc3O)n(CCc3ccccc3)c(=O)c12` [Example 34, 2-(2-Hydroxy-phenyl)-5-isobutoxy-3-phenethyl-3H-pyrido[4,3-d]pyrimidin-4-one], the IC50 is 1470 nM.
Under `CC(C)Oc1nccc2nc(-c3ccccc3O)n(CCc3ccccc3)c(=O)c12` [Example 35, 2-(2-Hydroxy-phenyl)-5-isopropoxy-3-phenethyl-3H-pyrido[4,3-d]pyrimidin-4-one] stands 380 nM.
Consider `O=c1c2c(OCC(F)(F)F)nccc2nc(-c2ccccc2O)n1CCc1ccccc1` [Example 36, 2-(2-Hydroxy-phenyl)-3-phenethyl-5-(2,2,2-trifluoro-ethoxy)-3H-pyrido[4,3-d]pyrimidin-4-one], for which the half-maximal inhibitory concentration (IC50) was 600 nM.
On to `C[C@H](Cc1ccc(F)c(F)c1)n1c(-c2ncccc2O)nc2ccnc(C(F)(F)F)c2c1=O` [Example 37a, (R)-3-(1-(3,4-difluorophenyl)propan-2-yl)-2-(3-hydroxypyridin-2-yl) 5-(trifluoromethyl)pyrido[4,3-d]pyrimidin-4(3H)-one], for which the IC50 stood at 8 nM.
As to `C[C@@H](Cc1ccc(F)c(F)c1)n1c(-c2ncccc2O)nc2ccnc(C(F)(F)F)c2c1=O` [Example 37b, (S)-3-(1-(3,4-difluorophenyl)propan-2-yl)-2-(3-hydroxypyridin-2-yl) 5-(trifluoromethyl)pyrido[4,3-d]pyrimidin-4(3H)-one], the IC50 is 2120 nM.
In the case of `COc1ccccc1CCn1c(-c2ncccc2O)nc2ccnc(C(F)(F)F)c2c1=O` [Example 39, 3-(2-methoxyphenethyl)-2-(3-hydroxypyridin-2-yl)-5-(trifluoromethyl)pyrido[4,3-d]pyrimidin-4(3H)-one], the IC50 stood at 110 nM.
For the molecule `O=c1c2c(C(F)(F)F)nccc2nc(-c2ncccc2O)n1CCc1cccc(F)c1F` [Example 40, 3-(2,3-difluorophenethyl)-2-(3-hydroxypyridin-2-yl)-5-(trifluoromethyl)pyrido[4,3-d]pyrimidin-4(3H)-one], the half-inhibitory concentration (IC50) was determined as 460 nM.
Take `COc1ccc(F)cc1CCn1c(-c2ncccc2O)nc2ccnc(C(F)(F)F)c2c1=O` [Example 41, 3-(5-fluoro-2-methoxyphenethyl)-2-(3-hydroxypyridin-2-yl)-5-(trifluoromethyl)pyrido[4,3-d]pyrimidin-4(3H)-one]: the half-inhibitory concentration (IC50) came to 250 nM.
For the molecule `COc1cccc(F)c1CCn1c(-c2ncccc2O)nc2ccnc(C(F)(F)F)c2c1=O` [Example 42, 3-(2-fluoro-6-methoxyphenethyl)-2-(3-hydroxypyridin-2-yl)-5-(trifluoromethyl)pyrido[4,3-d]pyrimidin-4(3H)-one], the IC50 came to 1120 nM.
For `CCC(Cc1ccccc1F)n1c(-c2ncccc2O)nc2ccnc(C(F)(F)F)c2c1=O` (stereo not drawn) [Example 44, 3-(1-(2-fluorophenyl)butan-2-yl)-2-(3-hydroxypyridin-2-yl)-5-(trifluoromethyl)pyrido[4,3-d]pyrimidin-4(3H)-one], the IC50 is 2440 nM.
Take `COc1c(F)cccc1CCn1c(-c2ncccc2O)nc2ccnc(C(F)(F)F)c2c1=O` [Example 45, 3-(3-fluoro-2-methoxyphenethyl)-2-(3-hydroxypyridin-2-yl)-5-(trifluoromethyl)pyrido[4,3-d]pyrimidin-4(3H)-one]: the half-inhibitory concentration (IC50) came out at 1870 nM.
For `O=c1c2c(C(F)(F)F)nccc2nc(-c2ncccc2O)n1CCC1CCCC1` [Example 46, 3-(2-cyclopentylethyl)-2-(3-hydroxypyridin-2-yl)-5-(trifluoromethyl)pyrido[4,3-d]pyrimidin-4(3H)-one], the 50% inhibitory concentration (IC50) amounted to 290 nM.
Regarding `O=c1c2c(C(F)(F)F)nccc2nc(-c2ncccc2O)n1CCC1CCCCC1` [Example 47, 3-(2-cyclohexylethyl)-2-(3-hydroxypyridin-2-yl)-5-(trifluoromethyl)pyrido[4,3-d]pyrimidin-4(3H)-one], the IC50 worked out at 60 nM.
As to `C[C@H](CC1CCCCC1)n1c(-c2ncccc2O)nc2ccnc(C(F)(F)F)c2c1=O` [Example 48a, (R)-3-(1-cyclohexylpropan-2-yl)-2-(3-hydroxypyridin-2-yl)-5-(trifluoromethyl)pyrido[4,3-d]pyrimidin-4(3H)-one], the IC50 was determined as 160 nM.
Turning to `C[C@@H](CC1CCCCC1)n1c(-c2ncccc2O)nc2ccnc(C(F)(F)F)c2c1=O` [Example 48b, (S)-3-(1-cyclohexylpropan-2-yl)-2-(3-hydroxypyridin-2-yl)-5-(trifluoromethyl)pyrido[4,3-d]pyrimidin-4(3H)-one], the IC50 turned out to be 1690 nM.
Turning to `C[C@H](Cc1ccccc1)n1c(-c2cccc(F)c2O)nc2ccnc(C(F)(F)F)c2c1=O` [Example 50, (R)-2-(3-fluoro-2-hydroxyphenyl)-3-(1-phenylpropan-2-yl)-5-(trifluoromethyl)pyrido[4,3-d]pyrimidin-4(3H)-one], the IC50 amounted to 30 nM.
Turning to `C[C@H](Cc1ccccc1)n1c(-c2ncc[nH]2)nc2ccnc(C(F)(F)F)c2c1=O` [Example 51, (R)-2-(1H-imidazol-2-yl)-3-(1-phenylpropan-2-yl)-5-(trifluoromethyl)pyrido[4,3-d]pyrimidin-4(3H)-one], the half-maximal inhibitory concentration (IC50) is 110 nM.

As usually defined, the IC50 is the concentration needed to halve the response being measured.
